Measurements reported in patent US20180002400A1, “SHORT PEPTIDE-BASED THERAPEUTIC AGENT AND MEDICINAL COMPOSITION INCLUDING THE SAME FOR INHIBITING ACTIVITIES OF CANCER CELLS” (NATIONAL CHENG KUNG UNIVERSITY, priority 2015, published 2018).

What was measured:
breast cancer MB231 cell [1] = assay: MTT cell viability (cell toxicity) of cancer cells co-cultured with short peptides; type: cell-based, human; details: MB231 co-cultured with increasing amount of short peptide for 24 hours or 48 hours; FIG. 1B
Description: After the human breast cancer MB231 cell of Example 2 was co-cultured with the short peptides RI37, GI40 and KT44 of Example 1 for 24 hours or 48 hours, the cell toxicity was analyzed by using MTT [3-(4,5-dimethylthiazol-2-yl)-2,5-[…] tetrazolium bomide] (Sigma). The transparent and colorless tetrazolium salt of MTT was degraded by mitochondrial dehydrogenase in live cells and converted to blue formazan crystals. Based on the cell viability of the cell in the absence of the short peptides of Example 1 as 100%, the influence of the cancer cell proliferation could be determined by using the short peptides.

breast cancer MB231 cell [2] = assay: Sphere formation (cancer stemness) induced by euPTX3; type: cell-based, human; details: short peptide 10 μg/mL or 225 nM + euPTX3 2.5 μg/mL, 2 weeks, FIG. 1C
Description: (§1) Each well of the multi-well plate with ultra-low attachment surface (Corning Inc.) was inoculated with the cell density 5×10^3 cells/well of the breast cancer MB231 cell, the lung cancer A549 cell and the nasopharyngeal cancer HONE1 cell, all of which were co-cultured with the short peptides R137, GI40, KT44 (10 μg/mL or 225 nM of the short peptide) and the polypeptide euPTX3 (2.5 μg/mL) of Example 1 in serum-free medium DMEM/F12 (Gibco) [containing B27 (Invitrogen), 20 ng/mL of epidermal growth factor (EGF; Abcam) and 10 ng/mL of basic Fibroblast Growth Factor (bFGF; Peprotech)]. After 2 weeks of cultivation, the cell spheres were observed by optical microscopy.

lung cancer A549 cell [3] = assay: as above; type: cell-based, human; details: short peptide 10 μg/mL or 225 nM + euPTX3 2.5 μg/mL, 2 weeks, FIG. 2A
Description: as §1

[4] = test system: nasopharyngeal cancer HONE1 cell; assay: as above; type: cell-based, human; details: short peptide 10 μg/mL or 225 nM + euPTX3 2.5 μg/mL, 2 weeks, FIG. 3A
Description: as §1

[5] = test system: drug-resistant breast cancer MB231R (MBR) cells; assay: Cancer cell migration (Boyden chamber) induced by euPTX3; type: cell-based, human
Description: [The procedure below names another cell line; the source lists this cell line under the same test.] (§2) The cell density 5×10^4 cells/well of the breast cancer MB231 cell, the lung cancer A549 cell and the nasopharyngeal cancer HONE1 cell were seeded into each upper insert of 24-well plate (containing 8-μm pore insert per well; BD Biosciences) for 19 hours, and each lower well was added with the short peptides RI37, GI40 and KT44 (10 μg/mL or 225 nM of the short peptide) and the polypeptide euPTX3 (2.5 μg/mL) of Example 1, for evaluating the influence of migration of the cancer cell of Example 2 using several short peptides of Example 1.
(§3) The cell density 5×10^4 cells/well of the breast cancer MB231 cell, the lung cancer A549 cell and the nasopharyngeal cancer HONE1 cell were seeded into each upper insert of Boyden chamber for 3 hours of cultivation.
(§4) And then, the medium in each upper insert was replaced by serum-free medium, and the medium in each lower well was added with the short peptides RI37, GI40, KT44 and the polypeptide euPTX3 of Example 1. The cells inside each upper insert were wiped with cotton swabs and removed after 16 hours of cultivation. Remaining cells that had migrated to the bottom of the insert membrane were stained by 4′,6-diamidino-2-phenylindole (DAPI; Invitrogen) and calculated under fluorescence microscopy with 200-fold magnification.

lung cancer A549 cell [6] = assay: as above; type: cell-based, human; details: A549; short peptide 10 μg/mL + euPTX3 2.5 μg/mL; FIG. 2C left panel
Description: as §2, §3, §4

[7] = test system: nasopharyngeal cancer HONE1 cell; assay: as above; type: cell-based, human; details: HONE1; short peptide 10 μg/mL + euPTX3 2.5 μg/mL; FIG. 3C left panel
Description: as §2, §3, §4

lung cancer A549 cell [8] = assay: Cancer cell invasion (matrigel-coated insert) induced by euPTX3; type: cell-based, human; details: A549; short peptide 10 μg/mL + euPTX3 2.5 μg/mL; FIG. 2C right panel
Description: (§5) The cell density 5×10^4 cells/well of the breast cancer MB231 cell, the lung cancer A549 cell and the nasopharyngeal cancer HONE1 cell were seeded into each upper insert of 24-well plate (containing 8-μm pore insert per well; BD Biosciences), the upper insert and the lower well were separated by the polyethelene terephthalate membrane coated with matrigel (purchased from BD Bioscience), and cultured for 3 hours.
(§6) Next, the medium in each upper insert was replaced by serum-free medium, and the medium in each lower well was added with the short peptides RI37, GI40, KT44 and the polypeptide euPTX3 and pPTX3/C of Example 1. The cells inside each upper insert were wiped with cotton swabs and removed after 16 hours of cultivation. Remaining cells that had migrated to the bottom of the insert membrane were stained by 4′, 6-diamidino-2-phenylindole (DAPI; Invitrogen) and calculated under fluorescence microscopy with 200-fold magnification.

[9] = test system: nasopharyngeal cancer HONE1 cell; assay: as above; type: cell-based, human; details: HONE1; short peptide 10 μg/mL + euPTX3 2.5 μg/mL; FIG. 3C right panel
Description: as §5, §6

[10] = test system: drug-resistant MB231R breast cancer; assay: Xenograft tumor model, CDDP-resistant MB231R cells in NOD-SCID mice; type: in vivo, mouse; details: for drug resistance generated by the tumor: 50 μg short peptide intratumorally twice weekly combined with CDDP 5 mg/kg i.p. once weekly; for drug resistance generated by the tumor / tumor growth (tumor size): FIG. 4D; for tumor growth (tumor size): 50 μg short peptide intratumorally twice weekly; for tumor metastasis and growth (images of tumors of various organs, epi-fluorescence radiance efficiency): IVIS imaging; for tumor metastasis (number of metastatic nodules per lung) / tumor growth (tumor weight per lung): sacrificed after ten weeks; for tumor metastasis (number of metastatic nodules per lung): FIG. 4E left panel; for tumor growth (tumor weight per lung): FIG. 4E right panel
Description: Besides, 1×10^6 mCherry fluorescent protein-labeled CDDP-resistant human MDA-MB-231 cells (MB231R; ATCC CRL-2539) were inoculated subcutaneously to the rear side of the back of six to eight-week-old female NOD-SCID immunodeficiency mice (purchased from Laboratory Animal Center of National Cheng Kung University). After 1 week of inoculation, the mice were intraperitoneally injected with 5 mg/kg of CDDP [dissolved in 1% (w/v) DMSO] or only 1% (w/v) of DMSO once weekly, and intratumorally uninjected or injected with 50 μg of the short peptides RI37, GI40 and KT44 of Example 1 twice weekly. The mice were sacrificed after ten weeks of inoculation. Spleen, kidneys, lungs and liver were obtained, tumor weight of those organs were measured according to 3 replications per group, and the metastatic activity and the number of metastatic nodules per organ were confirmed by IVIS Spectrum Imaging System. The tumor size was measured by a commercial external caliper, and the tumor volume (V) was calculated by the following formula (I). Each condition of the experiment was repeated at least thrice.

[11] = MB231R (MBR), identical molecular number: euPTX3 2.5 μg/mL, RI37 3.7 μg/mL, GI40 4 μg/mL, pPTX3/C 10 μg/mL, FIG. 5B left panel
[12] = breast cancer cells, short peptide 10 μg/mL + euPTX3 2.5 μg/mL, FIG. 1E left panel

Substance | cell viability (breast cancer MB231 cell [1]) | number of spheres induced by the polypeptide euPTX3 (breast cancer MB231 cell [2]) | number of spheres induced by the polypeptide euPTX3 (lung cancer A549 cell [3]) | number of spheres induced by the polypeptide euPTX3 [4] | migrated cell numbers induced by the polypeptide euPTX3 [5, 11] | migrated cell numbers induced by the polypeptide euPTX3 [5, 12] | migrated cell numbers induced by the polypeptide euPTX3 (lung cancer A549 cell [6]) | migrated cell numbers induced by the polypeptide euPTX3 [7] | invasive cell numbers induced by the polypeptide euPTX3 (lung cancer A549 cell [8]) | invasive cell numbers induced by the polypeptide euPTX3 [9] | drug resistance generated by the tumor [10] | tumor growth (tumor size) [10] | tumor metastasis and growth (images of tumors of various organs, epi-fluorescence radiance efficiency) ([10]; FIG. 4F) | tumor metastasis (number of metastatic nodules per lung) [10] | tumor growth (tumor weight per lung) [10] | metastatic nodules in organs (imaging) ([10]; FIG. 4F)
GI40: artificially synthetic short peptide having the amino acid sequence listed as SEQ ID NO:2, designed from human PTX3 (NP_002843.2) (GGGFDETLAFSGRLTGFNIWDSVLSNEEIRETGGAESCHI; The 320th amino acid to 359th amino acid of Human sapiens PTX3 (GI40)) | no significant influence on the cell viability | could effectively inhibit the number of spheres | could effectively inhibit the number of spheres | could effectively inhibit the number of spheres | could effectively inhibit the migrated cell numbers | could effectively inhibit the migrated cell numbers | could effectively inhibit the migrated cell numbers | could effectively inhibit the migrated cell numbers | could effectively inhibit the invasive cell numbers | could effectively inhibit the invasive cell numbers | reduce the drug resistance | could inhibit tumor growth | could inhibit tumor metastasis and growth | could inhibit tumor metastasis | could inhibit tumor metastasis and growth | 
KT44: artificially synthetic peptide having the amino acid sequence listed as SEQ ID NO:3 (KLVAEAMVSLGRWTHLCGTWNSEEGLTSLWVNGELAATTVEMAT; The 255th amino acid to 298th amino acid of Human sapiens PTX3 (KT44)) | no significant influence on the cell viability | could not inhibit the number of spheres | could not inhibit the number of spheres | could not inhibit the number of spheres |  | could not inhibit the migrated cell numbers | could not inhibit the migrated cell numbers | could not inhibit the migrated cell numbers | could not inhibit the invasive cell numbers | could not inhibit the invasive cell numbers |  | could not significantly inhibit the tumor growth | could not significantly inhibit tumor metastasis and growth | could not significantly inhibit tumor metastasis | could not significantly inhibit tumor metastasis and growth | metastatic nodules was found in lungs
RI37: artificially synthetic short peptide having the amino acid sequence listed as SEQ ID NO:1, designed from human PTX3 (NP_002843.2) (RPMRLESFSACIWVKATDVLNKTILFSYGTKRNPYEI; The 200th amino acid to 236th amino acid of Human sapiens PTX3 (RI37)) | no significant influence on the cell viability | could effectively inhibit the number of spheres | could effectively inhibit the number of spheres | could effectively inhibit the number of spheres | could effectively inhibit the migrated cell numbers | could effectively inhibit the migrated cell numbers | could effectively inhibit the migrated cell numbers | could effectively inhibit the migrated cell numbers | could effectively inhibit the invasive cell numbers | could effectively inhibit the invasive cell numbers | reduce the drug resistance | could inhibit tumor growth | could inhibit tumor metastasis and growth | could inhibit tumor metastasis | could inhibit tumor metastasis and growth | 
